Data from PMC11530130, “Peripherally restricted PICK1 inhibitor mPD5 ameliorates pain behaviors in murine inflammatory and neuropathic pain models” (JCI Insight, 2024).
Values joined by “and” are separate entries in the source; they are usually repeats but may differ in a detail not shown here. Equal values may be shown once.

Tests used:
[1] = Solubility in PBS by visual inspection
Description: (§1) SUPPORTING INFORMATION: Method Section.
(§2) Sex as a biological variable.
(§3) All peptides were ordered from WuXI AppTec (Shanghai, China) or TAG-Copenhagen […]
(§4) Assessment of solubility and stability of mPD5.
(§5) Solubility was determined by visual inspection of samples dissolved in increasing concentration in 10 mM PBS as judged by full transparency and monophasic appearance.
(§6) Stability was addressed by […] for four concentrations (2, 20, 50, and 200 µM), by leaving mPD5 in PBS at 5 °C and 25 °C for 30 days followed by HPLC-UV-MS.
(§7) Protein expression and purification.
(§8) Full length rat PICK1 (pET41) was, as described earlier (1), expressed in BL21-DE3-pLysS and grown at 37 °C, induced at OD600= 0.6 with 1 mM IPTG, and grown for 16 hours at 20 °C.
(§9) Cultures were harvested and re-suspended in 50 mM Tris, 125 mM NaCl, 2 mM DTT (Sigma), 1% Triton X-100 (Sigma), 20 µg/mL DNAse 1 and half a tablet of cOmplete protease inhibitor cocktail (Roche) pr. 1 L culture. The resuspended pellets were frozen at -80 °C for later purification. […] PICK1 was eluted on ice and concentration was measured on a NanoDrop 3000.
(§10) Fluorescence polarization binding. […]
(§11) binding surface 96 well plates (Sigma-Aldrich, Ref. no. 3686). The plates were incubated 20 min on ice and the fluorescence polarization was measured on an Omega POLARstar plate reader (BMG LABTECH) using excitation filter of 485 nm and long pass emission filter of 520 nm. […]

[2] = molecular target: T1, recombinant full-length PICK1 (Rattus norvegicus, UniProt Q9EP80); experiment: SEC of recombinant PICK1 in absence or presence of mPD5; assay type: binding; details: PICK1 40 μM with mPD5 10 μM; from 10.9 mL to 2 peaks at 8 mL and 9 mL
T1 construct: Full length rat PICK1 (pET41) was, as described earlier (1), expressed in BL21-DE3-pLysS; inferred from the pET41 vector and the glutathione-Sepharose capture) (N, cleaved yes); made in house; host or cells: E. coli BL21-DE3-pLysS
T1 sequence (Q9EP80 whole entry): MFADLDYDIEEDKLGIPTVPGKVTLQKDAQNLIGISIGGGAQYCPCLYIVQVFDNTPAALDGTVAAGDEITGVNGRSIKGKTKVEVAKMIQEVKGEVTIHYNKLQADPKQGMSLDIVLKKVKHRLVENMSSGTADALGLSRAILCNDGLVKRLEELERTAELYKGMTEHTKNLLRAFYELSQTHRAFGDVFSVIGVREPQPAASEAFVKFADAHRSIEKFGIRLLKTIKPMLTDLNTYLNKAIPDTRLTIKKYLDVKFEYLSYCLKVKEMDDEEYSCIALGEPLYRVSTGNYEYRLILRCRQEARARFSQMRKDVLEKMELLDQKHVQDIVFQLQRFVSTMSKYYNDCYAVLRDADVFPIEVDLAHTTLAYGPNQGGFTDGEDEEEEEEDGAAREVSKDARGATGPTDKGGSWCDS
Description: as §1, §2, §3, §4, §5, §6, §7, §8, §9, §10, §11

[3] = tested on: naive mice; experiment: Male fertility test; assay type: in vivo, mouse; design: Male fertility test, individual values (Fig 6E) / male fertility test, BB value (Fig S8C) / male fertility test, AB value (Fig S8C): unit not given here
Source text: Mice were 10 weeks old at the beginning of the experiment and acclimatized to the animal facility for two weeks after arrival. Male mice were randomized into two groups (n = 8/group) and weighed and injected s.c. once daily (between 3 pm and 4 pm) for 14 days with sterile PBS or 10 μmol/kg mPD5 (diluted in sterile PBS and pH adjusted to 7.4). After 14 days of dosing, the males were paired with female mice in fresh cages, and the number of pubs counted for 35 days (males were removed from the breeding cages after 14 days). Following the 14 days mating period, males were sacrificed by cervical dislocation caudae epidymidis were removed and weighed. Caudae epidymidis were cut into smaller pieces in 2 mL PBS (37 °C) and incubated (37 °C, 5% CO2) for 15 min. Following incubation, the mix was swirled gently, and 0.5 mL of the liquid was transferred to room tempered PBS to achieve a final volume of 1 mL.
Subsequently, sperm count was determined by transferring 50 µL of the sample to a hemocytometer, and each sample was determined in duplicate by an experimenter blinded to drug treatment. Following criteria were assessed: mobility (forward and circular), local tail mobility and total number. Females were weighed on a regular basis from removal of the males […]
Unless otherwise stated, all data were analysed using GraphPad Prism 9.4.1. and presented as mean +-SEM with the significance level set to p < 0.05. For locomotion and elevated plus maze, Ethovision XT 13 (Noldus) was used to track the distance travelled by each animal. For within group analysis (i.e., von Frey experiments), two-way ANOVA followed by Dunnett’s post hoc test was used. For between group analysis of multiple time points (i.e., locomotion experiments), two-way ANOVA was used without post hoc test due to lack of treatment significance in the ANOVA test. For the limb use experiment, data pre versus post treatment was analysed with a Kruskal Wallis test due to the non-parametric nature of the data. When analysing histograms of three groups or more (i.e., marble burying and elevated plus maze),

[4] = males s.c. 10 μmol/kg, once daily for 14 days
[5] = s.c. 10 μmol/kg, once daily for 14 days

SMILES: CCCCCCCCCCCCCC(=O)N(CCOCCOCCC(=O)N[C@@H](Cc1c[nH]cn1)C(=O)N[C@@H](Cc1c[nH]c2ccccc12)C(=O)N[C@@H](CC(C)C)C(=O)N[C@@H](CCCCN)C(=O)N[C@H](C(=O)O)C(C)C)CCOCCOCCC(=O)N[C@@H](Cc1c[nH]cn1)C(=O)N[C@@H](Cc1c[nH]c2ccccc12)C(=O)N[C@@H](CC(C)C)C(=O)N[C@@H](CCCCN)C(=O)N[C@H](C(=O)O)C(C)C [mPD5, myristoyl-NPEG4-(HWLKV)2]
- solubility [1]: ≥ 250000 µg/mL and ~130000 µM
- shift of PICK1 SEC elution (higher-order complexes) [2]: distinct shift in the peak elution volume of PICK1
- male fertility test, AB value (Fig S8C) ([3]; AB, individual animals): 28 (3×) and 27 and 26 and 28.5 and 29
- male fertility test, BB value (Fig S8C) ([3]; BB, individual animals): 41.5 and 43 and 45 (2×) and 41 (2×) and 44
- male fertility test, cumulative value by day (Fig S8B) ([3]; Day 19): 0
- male fertility test, cumulative value by day (Fig S8B) ([3]; Day 20): 17
- male fertility test, cumulative value by day (Fig S8B) ([3]; Day 21): 27
- male fertility test, cumulative value by day (Fig S8B) ([3]; Day 22): 56
- male fertility test, cumulative value by day (Fig S8B) ([3]; Day 23): 64
- male fertility test, cumulative value by day (Fig S8B) ([3]; Day 24): 64
- male fertility test, cumulative value by day (Fig S8B) ([3]; Day 25): 64
- male fertility test, cumulative value by day (Fig S8B) ([3]; Day 26): 64
- male fertility test, cumulative value by day (Fig S8B) ([3]; Day 27): 64
- male fertility test, cumulative value by day (Fig S8B) ([3]; Day 28): 64
- male fertility test, cumulative value by day (Fig S8B) ([3]; Day29): 64
- male fertility test, cumulative value by day (Fig S8B) ([3]; Day 30): 64
- male fertility test, cumulative value by day (Fig S8B) ([3]; Day 31): 64
- male fertility test, cumulative value by day (Fig S8B) ([3]; Day 32): 64
- male fertility test, cumulative value by day (Fig S8B) ([3]; Day 33): 64
- male fertility test, cumulative value by day (Fig S8B) ([3]; Day 34): 64
- male fertility test, cumulative value by day (Fig S8B) ([3]; Day 35): 64
- body weight drop per pup following birth [3, 4]: the same for both groups
- number of pups per litter vs vehicle [3, 4]: same between groups
- weight gain of females mated with treated male mice [3, 4]: significantly higher
- Male fertility test, individual values (Fig 6E) ([3]; naive mice): 8 and 9 and 10
- sperm count of the males vs vehicle [3, 5]: same between groups
- sperm count, individual mice [3, 5]: 15062500 and 13125000 and 14250000 and 7750000 and 16000000 and 10750000
